Measured values as given in PMC9964718, “Diterpenoids from Euphorbia gedrosiaca as Potential Anti-Proliferative Agents against Breast Cancer Cells” (Metabolites, 2023).

What was measured:
[1] = test system: MCF-7 (ATCCR HTB-22) breast cancer cells; assay: MTT viability assay, MCF-7 breast cancer cells; assay type: cell-based; details: for IC50: Homo sapiens, MCF7, MCF-7, MTT, 24 h incubation, mean ± SD (n = 3), read-out: Cytotoxic activity IC50; for Potency in MTT assay: MCF-7, 100 μM concentration, P values less than 0.0001
Method: (§1) MDA MB-231 and MCF-7 (ATCCR HTB-26 and ATCCR HTB-22) breast cancer cells, originated from Pasteur Institute (IPI, Tehran, I.R. Iran), were cultured in RPMI1640 with streptomycin, penicillin, and fetal bovine serum (FBS) (100 µg/mL, 100 units/mL, 10%) with criteria of 5% carbon dioxide, 37 °C, and 95% humidity for a few days. Mouse normal fibroblast cell line (NCTC clone 929 from the same institute) was cultured in DMEM+10% FBS+ 1% penicillin/streptomycin in the same conditions. After incubation, cells were seeded at 7 × 10^3 cells in each well of ninety-six well plates for 12 h. Then, the media were changed, and sample compounds in concentrations of 1, 10, and 100 µM were added. For L929 normal cell line, samples were added in the concentrations of 1, 10, 100, 250, and 500 µM. Placebo with the same amount of DMSO in each concentration used for compounds and Taxol in concentrations of 0.001, 0.01, 0.1, 1, and 10 µM were added as the negative and positive controls. After 24 h incubation time, the reduction agent (MTT, 5 mg/mL, 20 µL) was added to each well and incubated for 4 h to let the MTT be reduced into formazan derivative by the mitochondria of survived cells. The media was then changed with DMSO (200 µL) to solubilize the insoluble formazan crystals, and the absorbance was read by a Synergy ELISA reader (BioTek Instruments, Winooski, VT, USA) at 570 nm.

[2] = MTT viability assay, L929 normal fibroblast cell line; assay type: cell-based; details: L929 normal fibroblast cells (NCTC clone 929), L929 (normal) mouse fibroblast, 24 h incubation, mean ± SD (n = 3), read-out: Cytotoxic activity IC50
Method: as §1

[3] = test system: MDA-MB-231 (ATCCR HTB-26) breast cancer cells; assay: MTT viability assay, MDA-MB-231 breast cancer cells; assay type: cell-based; details: for IC50: Homo sapiens, MDA-MB-231, MTT, 24 h incubation, mean ± SD (n = 3), read-out: Cytotoxic activity IC50; for Cytotoxicity against MDA-MB-231 compared to MCF-7: comparison of MTT test results, MDA-MB-231 vs MCF-7
Method: as §1

[4] = test system: human colon (Caco-2) tumor cells; parameters: method as in PMID 30200407; details: cited from earlier work
[5] = test system: human lung (A549) tumor cells; parameters: method as in PMID 30200407; details: cited from earlier work
[6] = parameters: method as in PMID 30707022; details: compound isolated from roots of Euphorbia prolifera; cited from earlier work

SMILES	IC50 [1] [µM]	Potency in MTT assay [1]	IC50 at 24 h [2] [µM]	IC50 [3] [µM]	Cytotoxicity against proliferation [4]	Cytotoxicity against proliferation [5]	Cytotoxicity against MDA-MB-231 compared to MCF-7 [3]	Lipid-lowering activities and TG inhibitory effects [6]
CCC(=O)O[C@@H]1[C@@H]2[C@@H](OC(=O)C(C)CC)[C@@]3(COC(=O)c4cccnc4)[C@@H]([C@@H]4[C@H](C[C@H]3OC(C)=O)C4(C)C)[C@](C)(OC(C)=O)C(=O)[C@@]2(O)C[C@@H]1C (stereo partly drawn) [Compound 1, 3β-O-propanoyl-5α-O-methylbutanoyl-7α,13β-O-diacetyl-17α-O-nicotinoyl-14-oxopremyrsinane]	22.2 ± 2.4	reasonably potent	528 ± 23.8	10.8 ± 2.1	moderate cytotoxicity	moderate cytotoxicity	–	–
CCC(=O)OC1C2C(OC(C)=O)C34COC(C)(C(OC(=O)c5ccccc5)C2(OC(C)=O)CC1(C)OC(C)=O)C3C(C(C)(C)OC(C)=O)C=CC4OC(C)=O (centres unmarked) [Compound 5, 2,5,7,10,15-O-pentaacetyl-3-O-propanoyl-14-O-benzoyl-13,17-epoxy-8-myrsinene]	126 ± 4.2	–	596 ± 23.5	33.7 ± 4.6	–	–	–	–
CCC(=O)O[C@@H]1[C@@H]2[C@@H](OC(=O)C(C)C)[C@@]3(COC(C)=O)[C@@H]([C@@H]4[C@H](C[C@H]3OC(C)=O)C4(C)C)[C@](C)(OC(C)=O)C(=O)[C@@]2(O)C[C@@H]1C [Compound 3, 3β-O-propanoyl-5α-O-isobutanoyl-7α,13β, 17α -O-triacetyl-14-oxopremyrsinane]	62.6 ± 4.9	–	433 ± 22.1	24.5 ± 3.8	moderate cytotoxicity	moderate cytotoxicity	almost three times higher cytotoxicity	–
CCC(=O)O[C@@H]1[C@@H]2[C@@H](OC(=O)C(C)C)[C@@]3(COC(=O)c4cccnc4)[C@@H]([C@@H]4[C@H](C[C@H]3OC(C)=O)C4(C)C)[C@](C)(OC(C)=O)C(=O)[C@@]2(O)C[C@@H]1C [Compound 4, 3β-O-propanoyl-5α-O-isobutanoyl-7α,13β-O-diacetyl-17α-O-nicotinoyl-14-oxopremyrsinane]	74.4 ± 5.2	–	716 ± 26.9	27.3 ± 3.2	moderate cytotoxicity	moderate cytotoxicity	almost three times higher cytotoxicity	–
CCC(=O)O[C@@H]1[C@@H]2[C@@H](OC(=O)c3ccccc3)[C@@]3(COC(C)=O)[C@@H]([C@@H]4[C@H](C[C@H]3OC(C)=O)C4(C)C)[C@](C)(OC(C)=O)C(=O)[C@@]2(O)C[C@@H]1C [Compound 2, 3β-O-propanoyl-5α-O-benzoyl-7α,13β, 17α -O-triacetyl-14-oxopremyrsinane]	27.8 ± 2.5	reasonably potent	553 ± 26.7	22.2 ± 4	–	–	–	acceptable
